The source of these data is US7488583B2, “Fragment complementation assays for G-protein-coupled receptors and their signaling pathways” (Odyssey Thera, Inc., priority 2003, dated 2009).

Assay [1] relates to association of beta-arrestin2 and ubiquitin. The assay is described as follows: beta-arrestin2/ubiquitin PCA (ubiquitination of beta-arrestin2). Format: cell-based. The conditions noted are these: for beta-arrestin2/ubiquitin assay fluorescence, positive pixel mean (PPM) as percent of control (FIG. 12): versus negative control (vehicle alone). An excerpt: To illustrate another example of a novel assay constructed using the methods provided herein, we developed a protein-fragment complementation assay to measure the association of beta-arrestin2 and ubiquitin (see FIGS. 11-12) using the methods described here. Ubiquitin is a highly conserved 76-amino acid polypeptide. Since its discovery in the mid-1970s, ubiquitin has been associated with cellular house-keeping functions such as eliminating damaged proteins. It has recently become clear that ubiquitin is involved in a variety of other vital processes at different subcellular locations ranging from the plasma membrane to the nucleus, including cell-cycle progression, signal transduction, transcriptional regulation, receptor down-regulation, and endocytosis. Ubiquitin is covalently attached to proteins through an isopeptide bond between its carboxy-terminal glycine and the epsilon-amino group of lysines in the target protein. This attachment is catalyzed by enzymes that activate and ultimately conjugate the ubiquitin moiety to a lysine residue in the substrate. This can be followed by further additions of ubiquitin to specific lysine residues within the linked ubiquitin itself, resulting in a poly-ubiquitin chain. This covalent modification can be reversed by unique proteases specific for the iso-peptide linkage. Although ubiquitin is the best-characterized polypeptide modifier, other polypeptides (often referred to as Ubiquitin-like, or Ubl) are also conjugated to targets in analogous reactions. These ‘alternative’ modifiers, which differ from ubiquitin in sequence similarity but which are structurally similar to ubiquitin, include SUMO; Nedd8; Hub 1, ISG15 or UCRP; and Apg 12 (reviewed in Aguilar).
Previously, assays for ubiquitination have relied upon immunoblotting of proteins with anti-ubiquitin antibodies, or on labelling of proteins with a fluorophore-tagged ubiquitin polypeptide. […] FIGS. 11-12 show the results of the transient transfection of the PCA constructs. […] Since the process of ubiquitination targets proteins for degradation, we used ALLN (see Table 3 for concentration) to inhibit the proteasome activity of the cell in order to ensure that the arrestin/ubiquitin complex would accumulate in the cells and be detectable. […] The effects of Trichostatin A are particularly interesting in light of recent findings linking HDAC inhibition with the attenuation of cardiac hypertrophy induced by isoproterenol or by overexpression of proteins linked to cardiac growth and proliferation (Cardiac hypertrophy and histone deacetylase-dependent transcriptional repression mediated by the atypical homeodomain protein Hop; H. Kook, et al., J Clin Invest. 2003 September; 112(6):863-71). […]

In assay [2] the target is T1, interaction of the beta-adrenergic receptor with beta-arrestin2 (Homo sapiens, UniProt P07550).
T1 construct: (Gly-Gly-Gly-Gly-Ser)2 linker between receptor and YFP[2]; YFP[2]; (EYFP amino acids 159-239); expressed in transfected cells
Format: cell-based. The note with it: HEK293T stable line, 480 minutes, concentrations of Table 3.
Protocol: For the betaARR2/beta2AR, stable cell lines were generated.
Drug concentrations initially were chosen based on literature references and were further refined to ensure lack of toxicity in HEK293 cells, based on lactate dehydrogenase (LDH) toxicity analyses. All liquid handling steps were performed using the Biomek FX platform (Beckman Instruments, Fullerton, Calif.). Cells expressing the betaARR2/beta2AR PCA were incubated in cell culture medium containing drugs for 30 min., 90 min., and 8 hours. […] Cells were subsequently rinsed with HBSS (Invitrogen) and maintained in the same buffer during image acquisition. […] All treatment conditions were run in duplicate yielding a total of 8 images for each wavelength and treatment condition.
For these high-content assays, image analysis is needed to convert the acquired images into fluorescence intensity and, if desired, to resolve the subcellular distribution of the fluorescence signal. […] Raw images in 16-bit grayscale TIFF format were analyzed using ImageJ API/library as described in the literature. […] Next a threshold was established to separate the foreground from background. An iterative algorithm based on Particle Analyzer from ImageJ was applied to the thresholded Hoechst channel image (HI) to obtain the total cell count. The nuclear region of a cell (nuclear mask) was also derived from the thresholded HI. A WGA mask was generated similarly from the thresholded Texas Red image. […] To calculate the global background (gBG), a histogram was obtained from the un-thresholded YI and the pixel intensity of the lowest intensity peak was identified as gBG. […] The mean pixel intensity for all positive particles within each defined sub-region was calculated, resulting in 4 parameters: total positive pixel mean (MT, the mean intensity of the total particle fluorescence); Hoechst mean (M1, the mean intensity of the Hoechst defined region); Texas Red mean (M2, the mean intensity of the WGA-defined region); and Subtracted mean (M3, the mean intensity of the pixels excluded from the WGA- and Hoechst-defined regions). All means were corrected for the corresponding gBG.
For each set of experiments (assay+drug treatment+treatment time), positive pixel data from eight images were pooled. For each parameter, an outlier filter was applied to filter out those particles falling outside the range (mean±3SD) of the group. Next the sample mean or control mean for each parameter was obtained from each filtered group.

“Also recorded” adds a separate entry of the source. Non-standard residues stand in square brackets, D forms with d. Residues, ends and D or L forms follow the SMILES beside them. *: point of attachment. Nle = CCCC[C@H](N)C(=O)O; Cbz = O=C(OCc1ccccc1)*

With `CC(C)NCC(O)c1ccc(O)c(O)c1` (stereo not drawn) [isoproterenol], in assay [1] (in the presence of ALLN, 60-120 minutes), the “beta-arrestin2/ubiquitin PCA fluorescence intensity after agonist (FIG. 11)” value was “caused a significant increase in fluorescence intensity; also recorded: caused a significant increase in signal”.

Consider `CC(/C=C/C(=O)NO)=C\[C@@H](C)C(=O)c1ccc(N(C)C)cc1` [Trichostatin A], for which the “beta-arrestin2/ubiquitin assay fluorescence, positive pixel mean (PPM) as percent of control (FIG. 12)” value in assay [1] is “significantly increased the assay signal; also recorded: increased the signal fourfold”.

For `CCCC[C@@H](C=O)NC(=O)[C@H](CC(C)C)NC(=O)[C@H](CC(C)C)NC(C)=O` [ALLN] (Ac-Leu-Leu-[Nle]-aldehyde), the “beta-arrestin2/ubiquitin PCA signal with proteasome inhibitor (FIG. 11)” value in assay [1] (transient transfection, absence of isoproterenol, ALLN at Table 3 concentration) is given as “clearly visible in the presence of ALLN; also recorded: Signal was apparent only in the presence”.

As to `CC(C)C[C@@H](C=O)NC(=O)[C@H](CC(C)C)NC(=O)[C@H](CC(C)C)NC(=O)OCc1ccccc1` [MG132] (Cbz-Leu-Leu-Leu-aldehyde), the “beta-arrestin2/ubiquitin assay fluorescence, positive pixel mean (PPM) as percent of control (FIG. 12)” value in assay [1] was “significantly increased the assay signal; also recorded: increased the signal fourfold”.

As to pertussis toxin, the “fluorescence intensity of the YFP channel as percent of control, later time points (FIG. 10)” value in assay [2] is reported as “had effects only at later time points”.

Regarding `Cc1ccc(S(=O)(=O)/C=C/C#N)cc1` [BAY 11-7082], the “fluorescence intensity of the YFP channel as percent of control, later time points (FIG. 10)” value in assay [2] is listed as “had effects only at later time points”.
